Source: patent US20210071138A1, “GAMETOGENESIS” (United Kingdom Research and Innovation, priority 2017, published 2021)

Tests used:
PRC1 = target: T1, PRC1 (Mus musculus, UniProt Q9CQJ4); experiment: Western blot of H2Aub in mESCs cultured with PRC1 inhibitor; assay type: cell-based; conditions: 50 μM PRT4165, after 6h of culture, vs DMSO control (FIG. 15b)
T1 construct: endogenous in cells; host or cells: J1 (wild type) and Dnmt-TKO mouse embryonic stem cells
T1 sequence (Q9CQJ4 1-336): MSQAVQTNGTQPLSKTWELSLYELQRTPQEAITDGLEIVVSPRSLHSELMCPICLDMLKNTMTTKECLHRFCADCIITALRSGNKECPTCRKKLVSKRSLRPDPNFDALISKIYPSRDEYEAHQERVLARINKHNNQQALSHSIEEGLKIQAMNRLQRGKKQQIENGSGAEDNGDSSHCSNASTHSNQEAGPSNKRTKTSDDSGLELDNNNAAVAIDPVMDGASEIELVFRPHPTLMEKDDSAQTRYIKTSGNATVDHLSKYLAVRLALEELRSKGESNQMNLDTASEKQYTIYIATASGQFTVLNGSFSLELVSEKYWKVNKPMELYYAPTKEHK
Description: (§1) J1 (wild type), Dnmt-TKO^23 and Tet1-KO Dnmt-TKO mESCs were cultured in FCS/LIF medium without feeders on 0.1% gelatin. FCS/LIF medium consists of GMEM (Gibco) supplemented with 10% FCS, 0.1 mM MEM nonessential amino acids, 2 mM 1-glutamine, 1 mM sodium pyruvate, 0.1 mM 2-mercaptoethanol and mouse LIF (ESGRO, Millipore). For inhibitor experiments, mESCs were plated at a density of 1.5×10^4/cm^2 and left overnight. The next morning medium was exchanged for FCS/LIF medium containing either 50 μM PRC1 inhibitor PRT4165 (Ismail et al., 2013) or DMSO control and cells pelleted at the indicated time for analysis.
mESCs were lysed by sonication in RIPA buffer (150 mM sodium chloride, 1.0% Triton X-100, 0.5% sodium deoxychlorate, 0.1% sodium dodecylsulfate, 50 mM Tris pH 8.0) and protease-inhibitor cocktail (Roche, 11 697 498 001). Cell debris were removed by centrifugation at 14000 g 5 min 4° C. Protein was quantified using the BCA protein assay (Thermo, 23227). 2 μg (for H2A and H2Aub) or 20 μg (for Tet1) of each protein extract was loaded onto an 15% or 8% SDS polyacrylamide gel and transferred to a PVDF membrane after electrophoresis. Membranes were blocked with 5% BSA for 1 hour and then incubated overnight at 4° C. with primary antibodies at the following dilutions: anti-H2A antibody (Abcam, 18255) 1:2000; anti-ubiquityl H2A antibody (Cell Signalling 8240) 1:2000; anti-Tet1 antibody [N1] […]

[1] = tested on: germline reprogramming responsive (GRR) genes; experiment: RNA-Seq differential expression of GRR genes in mESCs; assay type: cell-based, mouse
Description: as §1, with “analysis. […]” for “analysis.”
For study of Tet1-KO and Tet1-WT PGCs, Illumina and Smart-seq adapters from the sequencing reads were first trimmed using Trimmomatic. […] RNA-Seq reads were aligned to the mouse genome (mm9, NCBI build 37) with Bowtie (version 0.12.8) and Tophat (version 2.0.2) with options -N 2 --b2-very-sensitive --b2-L 25. […] Read counts per annotated gene were computed using HTSeq (version 0.5.3p9) and expression level of each gene was quantified by computing the number of fragments detected per kilobase per million of reads (FPKM) using custom R script. […] For determining gene expression levels in wild type and Dnmt1-conditional knockout and matched wild type E10.5 PGCs, raw RNA-Seq reads were downloaded from GSE74938^24 and processed as above. […]

inhibition of PRC1-mediated H2A ubiquitination (PRC1): significant inhibition
SMILES: O=C1C(=Cc2cccnc2)C(=O)c2ccccc21 [PRT4165]
number of GRR genes activated (of 45) upon dual inhibition of 5mC/PRC1 repression ([1]; Dnmt-TKO mESCs + 6h PRT4165 (50 μM) vs wild type + 6h DMSO (FIG. 4d, 15c)): 33 GRR genes
number of GRR genes activated (of 45) upon sole inhibition of PRC1 repression ([1]; wild type mESCs + 6h PRT4165 (50 μM) vs wild type + 6h DMSO (FIG. 4d, 15c)): 10 genes
